From patent US11046694B2, “Compounds and methods for treating bacterial infections” (Entasis Therapeutics, Inc., priority 2018, dated 2021) come the findings set out here.

One test has as its target P. aeruginosa PBP1a (Pseudomonas aeruginosa, UniProt Q07806). The class given is biochemical. The settings on record: P. aeruginosa PBP1a 60 nM, BOCILLIN FL 30 nM, pH 7.0.
The next test concerns the target T1, P. aeruginosa PBP2 (Pseudomonas aeruginosa, UniProt Q9X6V3).
T1 sequence (Q9X6V3 1-646): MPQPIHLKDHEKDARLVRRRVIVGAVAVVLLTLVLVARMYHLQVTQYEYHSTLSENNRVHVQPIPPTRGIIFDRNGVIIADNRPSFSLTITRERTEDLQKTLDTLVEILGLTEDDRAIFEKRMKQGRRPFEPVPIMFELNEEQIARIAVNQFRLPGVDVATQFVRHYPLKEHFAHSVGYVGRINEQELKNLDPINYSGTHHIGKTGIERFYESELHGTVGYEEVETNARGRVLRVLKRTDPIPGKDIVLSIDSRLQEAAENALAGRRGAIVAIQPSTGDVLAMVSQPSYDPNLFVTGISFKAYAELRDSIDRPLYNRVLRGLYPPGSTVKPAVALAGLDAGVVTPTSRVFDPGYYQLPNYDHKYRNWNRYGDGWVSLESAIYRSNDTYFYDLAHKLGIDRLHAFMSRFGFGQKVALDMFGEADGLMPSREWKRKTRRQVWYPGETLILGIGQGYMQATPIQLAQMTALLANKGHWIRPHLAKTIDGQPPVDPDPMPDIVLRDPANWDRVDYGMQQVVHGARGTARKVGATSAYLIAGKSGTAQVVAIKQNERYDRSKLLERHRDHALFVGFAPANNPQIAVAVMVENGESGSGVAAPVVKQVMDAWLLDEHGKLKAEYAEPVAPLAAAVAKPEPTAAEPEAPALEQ
The class given is biochemical. As to conditions: P. aeruginosa PBP2 300 nM, BOCILLIN FL 30 nM, pH 6.2.

The target in the next test is P. aeruginosa PBP3 (Pseudomonas aeruginosa, UniProt G3XD46). It counts as biochemical. The settings on record: P. aeruginosa PBP3 60 nM, BOCILLIN FL 30 nM, pH 7.0.
P. aeruginosa PBP3, sequence (G3XD46 whole entry): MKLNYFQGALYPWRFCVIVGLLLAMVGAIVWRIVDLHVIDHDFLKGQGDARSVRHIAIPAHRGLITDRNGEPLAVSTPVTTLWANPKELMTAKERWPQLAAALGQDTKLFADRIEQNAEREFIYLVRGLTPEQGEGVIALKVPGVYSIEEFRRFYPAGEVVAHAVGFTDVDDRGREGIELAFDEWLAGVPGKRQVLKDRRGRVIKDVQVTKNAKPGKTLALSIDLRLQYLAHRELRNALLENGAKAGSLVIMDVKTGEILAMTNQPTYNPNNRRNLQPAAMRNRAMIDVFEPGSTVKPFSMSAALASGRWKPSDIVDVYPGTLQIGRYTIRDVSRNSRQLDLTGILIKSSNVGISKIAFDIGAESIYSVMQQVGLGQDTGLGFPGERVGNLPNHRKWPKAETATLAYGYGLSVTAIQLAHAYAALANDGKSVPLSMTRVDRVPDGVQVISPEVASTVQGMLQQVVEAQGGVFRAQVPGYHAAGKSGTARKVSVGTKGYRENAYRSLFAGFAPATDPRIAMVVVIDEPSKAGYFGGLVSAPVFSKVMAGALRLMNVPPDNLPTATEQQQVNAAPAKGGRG
For a further test, the system named is P. aeruginosa WT (PAO1). Put plainly: MIC, CLSI broth microdilution, P. aeruginosa. As to conditions: Pseudomonas aeruginosa, PAO1; CLSI broth microdilution; read-out: P. aeruginosa WT (PAO1) MIC. It counts as cell-based.
The test system of a further test is E. coli (ATCC25922). The test is described as follows: MIC against E. coli. The settings on record: Escherichia coli, ATCC25922, read-out: E. coli MIC (ATCC25922) (mg/L).
A further test has as its system A. baumannii (ARC3495). The test is described as follows: MIC against A. baumannii. As to conditions: Acinetobacter baumannii, read-out: A. baumannii MIC (ARC3495) (mg/L).
Test [1] concerns K. pneumoniae (ATCC700603). The test is described as follows: MIC against K. pneumoniae. The settings on record: Klebsiella pneumoniae, ATCC700603, read-out: K. pneumoniae MIC (ATCC700603).
The subject of the next test is B. pseudomallei. Put plainly: microbe, parasite or virus in culture. The settings on record: Burkholderia pseudomallei, read-out: MIC against B. pseudomallei.
A further test relates to B. mallei. The test is described as follows: microbe, parasite or virus in culture. The settings on record: Burkholderia mallei, read-out: MIC against B. mallei.
For the next test, the system named is F. tularensis. Put plainly: microbe, parasite or virus in culture. The settings on record: Francisella tularensis, read-out: MIC against F. tularensis.
The test system of a further test is Y. pestis. The test is described as follows: microbe, parasite or virus in culture. As to conditions: Yersinia pestis, read-out: MIC against Y. pestis.
The subject of a further test is B. anthracis. Put plainly: microbe, parasite or virus in culture. The settings on record: Bacillus anthracis, read-out: MIC against B. anthracis.

Molecules are shown by their SMILES. Counter-ions that a name gives are not always drawn. Where only a bound is given, the exact number is not on record here.

P. aeruginosa PBP1a, sequence (Q07806 whole entry): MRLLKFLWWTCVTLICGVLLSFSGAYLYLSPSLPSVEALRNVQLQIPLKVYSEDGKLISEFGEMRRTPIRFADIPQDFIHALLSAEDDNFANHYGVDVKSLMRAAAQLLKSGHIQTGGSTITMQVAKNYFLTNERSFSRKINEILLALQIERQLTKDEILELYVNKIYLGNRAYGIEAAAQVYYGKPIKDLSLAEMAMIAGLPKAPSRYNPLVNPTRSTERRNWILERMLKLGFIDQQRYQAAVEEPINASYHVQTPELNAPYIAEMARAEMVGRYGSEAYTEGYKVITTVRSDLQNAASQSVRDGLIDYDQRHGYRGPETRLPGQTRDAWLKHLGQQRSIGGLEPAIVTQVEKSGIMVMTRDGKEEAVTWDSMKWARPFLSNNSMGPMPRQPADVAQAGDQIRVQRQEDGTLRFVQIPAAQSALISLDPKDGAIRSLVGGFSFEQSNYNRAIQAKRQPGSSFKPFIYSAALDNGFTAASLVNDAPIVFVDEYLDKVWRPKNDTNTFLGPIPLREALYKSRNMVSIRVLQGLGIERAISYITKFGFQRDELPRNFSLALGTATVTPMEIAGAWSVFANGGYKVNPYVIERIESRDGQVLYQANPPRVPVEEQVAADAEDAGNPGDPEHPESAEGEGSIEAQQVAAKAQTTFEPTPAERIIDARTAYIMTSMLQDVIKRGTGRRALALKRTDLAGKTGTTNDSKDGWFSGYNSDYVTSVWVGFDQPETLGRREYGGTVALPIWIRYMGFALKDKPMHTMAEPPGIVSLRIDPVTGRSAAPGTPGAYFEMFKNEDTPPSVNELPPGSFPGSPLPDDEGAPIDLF

Consider `CN/C(=N\O)[C@@H]1c2c(cnn2C)[C@@H]2CN1C(=O)N2OS(=O)(=O)O` (stereo in doubt) [Example 40, Sodium (4R*,8S*)-8-((Z)—N′-hydroxy-N-methylcarbamimidoyl)-1-methyl-6-oxo-4,8-dihydro-1H-4,7-methanopyrazolo[3,4-e][1,3]diazepin-5(6H)-yl hydrogen sulfate], for which the “PBP1a acylation rate, k(on) (M^−1 · s^−1)” value (from here on “PBP1a acylation rate”) at P. aeruginosa PBP1a was “** (** represents a k(on) of 100 to 10,000 M^−1 · s^−1)”. On P. aeruginosa PBP2, the “PBP2 acylation rate, k(on) (M^−1 · s^−1)” value was “* (* represents a k(on) < 100 M^−1 · s^−1)”. Besides, on P. aeruginosa PBP3, the “PBP3 acylation rate, k(on) (M^−1 · s^−1)” value is “*** (*** represents a k(on) > 10,000 M^−1 · s^−1)”. Also, the MIC in the test with P. aeruginosa WT (PAO1) is under 8 µg/mL; with E. coli (ATCC25922) it was under 8 mg/L; in the test with A. baumannii (ARC3495) it was under 8 mg/L; in test [1] it was under 8 µg/mL; in the test on B. pseudomallei, under 4 µg/mL; with B. mallei it was under 4 µg/mL. The MIC in the test with F. tularensis, with Y. pestis and in the test with B. anthracis was under 4 µg/mL in each case.
Consider `Cn1ncc2c1[C@@H](/C(CNS(N)(=O)=O)=N/O)N1C[C@@H]2N(OS(=O)(=O)O)C1=O` [Example 56, (4R,8S)-8-((E)-1-(hydroxyamino)-2-(sulfamoyl)amino)ethyl)-1-methyl-6-oxo-4,8-dihydro-1H-4,7-methanopyrazolo[3,4-e][1,3]diazepin-5(6H)-yl hydrogen sulfate], for which the “PBP1a acylation rate” value at P. aeruginosa PBP1a was “** (** represents a k(on) of 100 to 10,000 M^−1 · s^−1)”. In addition, at P. aeruginosa PBP2, the “PBP2 acylation rate, k(on) (M^−1 · s^−1)” value is “* (* represents a k(on) < 100 M^−1 · s^−1)”. In addition, the “PBP3 acylation rate, k(on) (M^−1 · s^−1)” value on P. aeruginosa PBP3 is on record as “** (** represents a k(on) of 100 to 10,000 M^−1 · s^−1)”. Further, the MIC in the test with P. aeruginosa WT (PAO1) is over 16 µg/mL; with E. coli (ATCC25922), under 8 mg/L; in the test with A. baumannii (ARC3495), over 16 mg/L; in [1], over 16 µg/mL.
Consider `Cn1ncc2c1[C@@H](c1noc(=O)n1C)N1C[C@@H]2N(OS(=O)(=O)O)C1=O` [Example 66, ((4R,8S)-1-methyl-8-(4-methyl-5-oxo-4,5-dihydro-1,2,4-oxadiazol-3-yl)-6-oxo-4,8-dihydro-1H-4,7-methanopyrazolo[3,4-e][1,3]diazepin-5(6H)-yl hydrogen sulfate], for which the “PBP1a acylation rate” value on P. aeruginosa PBP1a is listed as “** (** represents a k(on) of 100 to 10,000 M^−1 · s^−1)”. The “PBP2 acylation rate, k(on) (M^−1 · s^−1)” value at P. aeruginosa PBP2 is “* (* represents a k(on) < 100 M^−1 · s^−1)”. Moreover, the “PBP3 acylation rate, k(on) (M^−1 · s^−1)” value on P. aeruginosa PBP3 was “** (** represents a k(on) of 100 to 10,000 M^−1 · s^−1)”. In addition, the MIC was over 16 µg/mL in the test on P. aeruginosa WT (PAO1), under 8 mg/L with E. coli (ATCC25922), over 16 mg/L in the test on A. baumannii (ARC3495) and over 16 µg/mL in test [1].
In the case of `Cn1ncc2c1[C@@H](/C(=N/O)C(N)=O)N1C[C@@H]2N(OS(=O)(=O)O)C1=O` [Example 67, (4R,8S)-8-((Z)-2-amino-1-(hydroxyimino)-2-oxoethyl-1-methyl-6-oxo-4,8-dihydro-1H-4,7-methanopyrazolo[3,4-e][1,3]diazepin-5(6H)-yl hydrogen sulfate], at P. aeruginosa PBP1a, the “PBP1a acylation rate” value is “* (* represents a k(on) < 100 M^−1 · s^−1)”. Moreover, on P. aeruginosa PBP2, the “PBP2 acylation rate, k(on) (M^−1 · s^−1)” value is listed as “* (* represents a k(on) < 100 M^−1 · s^−1)”. Also, on P. aeruginosa PBP3, the “PBP3 acylation rate, k(on) (M^−1 · s^−1)” value was “** (** represents a k(on) of 100 to 10,000 M^−1 · s^−1)”. For the same compound, the MIC with P. aeruginosa WT (PAO1) is over 16 µg/mL; with E. coli (ATCC25922), under 8 mg/L; in the test on A. baumannii (ARC3495) it was over 16 mg/L; in test [1] it was over 16 µg/mL.
`CN/C(=N\O)[C@@H]1c2c(cnn2CCCCN)[C@@H]2CN1C(=O)N2OS(=O)(=O)O` [Example 68, (4R,8S)-1-(4-aminobutyl)-8-((Z)—N′-hydroxy-N-methylcarbamimidoyl)-6-oxo-4,8-dihydro-1H-4,7-methanopyrazolo[3,4-e][1,3]diazepin-5(6H)-yl hydrogen sulfate]: on P. aeruginosa PBP1a, the “PBP1a acylation rate” value is recorded as “* (* represents a k(on) < 100 M^−1 · s^−1)”. Moreover, at P. aeruginosa PBP2, the “PBP2 acylation rate, k(on) (M^−1 · s^−1)” value is listed as “* (* represents a k(on) < 100 M^−1 · s^−1)”. Besides, the “PBP3 acylation rate, k(on) (M^−1 · s^−1)” value at P. aeruginosa PBP3 is given as “** (** represents a k(on) of 100 to 10,000 M^−1 · s^−1)”. Moreover, the MIC with P. aeruginosa WT (PAO1) is under 8 µg/mL; in the test with E. coli (ATCC25922) it was 8 to 16 mg/L; in the test with A. baumannii (ARC3495), 8 to 16 mg/L; in [1], over 16 µg/mL.
`CC(=O)O/N=C(\N)[C@@H]1c2c(cnn2C)[C@@H]2CN1C(=O)N2OS(=O)(=O)O` [Example 70, Pyridium (4R,8S)-8-((Z)—N′-acetoxycarbamimidoyl)-1-methyl-6-oxo-4,8-dihydro-1H-4,7-methanopyrazolo[3,4-e][1,3]diazepin-5(6H)-yl hydrogen sulfate]: on P. aeruginosa PBP1a, the “PBP1a acylation rate” value was “* (* represents a k(on) < 100 M^−1 · s^−1)”. Moreover, at P. aeruginosa PBP2, the “PBP2 acylation rate, k(on) (M^−1 · s^−1)” value is “* (* represents a k(on) < 100 M^−1 · s^−1)”. Besides, the “PBP3 acylation rate, k(on) (M^−1 · s^−1)” value on P. aeruginosa PBP3 is recorded as “** (** represents a k(on) of 100 to 10,000 M^−1 · s^−1)”. Moreover, the MIC in the test with P. aeruginosa WT (PAO1) is over 16 µg/mL; in the test with E. coli (ATCC25922) it was 8 to 16 mg/L; in the test with A. baumannii (ARC3495) it was over 16 mg/L; in test [1], over 16 µg/mL.
For the compound `C/C(=N\O)[C@@H]1c2c(cnn2C)[C@@H]2CN1C(=O)N2OS(=O)(=O)O` [Example 71, (4R,8S)-8-((E)-1-(hydroxyimino)ethyl)-1-methyl-6-oxo-4,8-dihydro-1H-4,7-methanopyrazolo[3,4-e][1,3]diazepin-5(6H)-yl hydrogen sulfate], the “PBP1a acylation rate” value on P. aeruginosa PBP1a is recorded as “* (* represents a k(on) < 100 M^−1 · s^−1)”. Also, on P. aeruginosa PBP2, the “PBP2 acylation rate, k(on) (M^−1 · s^−1)” value was “* (* represents a k(on) < 100 M^−1 · s^−1)”. Also, the “PBP3 acylation rate, k(on) (M^−1 · s^−1)” value on P. aeruginosa PBP3 is “** (** represents a k(on) of 100 to 10,000 M^−1 · s^−1)”. Besides, the MIC was 8 to 16 µg/mL in the test with P. aeruginosa WT (PAO1), 8 to 16 mg/L in the test on E. coli (ATCC25922), over 16 mg/L with A. baumannii (ARC3495) and over 16 µg/mL in [1].
`CN(N)/C(=N\OS(=O)(=O)O)[C@@H]1c2c(cnn2C)[C@@H]2CN1C(=O)N2OS(=O)(=O)O` [Example 72, ((((Z)-((4R,8S)-1-methyl-6-oxo-5-(sulfooxy)-4,5,6,8-tetrahydro-1H-4,7-methanopyrazolo[3,4-e][1,3]diazepin-8-yl)(1-methylhydrazineyl)methylene)amino)oxy)sulfonic acid]: the “PBP1a acylation rate” value on P. aeruginosa PBP1a is “** (** represents a k(on) of 100 to 10,000 M^−1 · s^−1)”. For the same compound, at P. aeruginosa PBP2, the “PBP2 acylation rate, k(on) (M^−1 · s^−1)” value was “* (* represents a k(on) < 100 M^−1 · s^−1)”. At P. aeruginosa PBP3, the “PBP3 acylation rate, k(on) (M^−1 · s^−1)” value was “*** (*** represents a k(on) > 10,000 M^−1 · s^−1)”. For the same compound, the MIC is over 16 µg/mL in the test with P. aeruginosa WT (PAO1), under 8 mg/L with E. coli (ATCC25922), over 16 mg/L in the test on A. baumannii (ARC3495) and over 16 µg/mL in [1].
